Patent US8993721B2, “Peptides for targeting apoptotic cells and uses thereof” (Kyungpook National University Industry-Academic Cooperation …, priority 2008, dated 2015)
Entries after “also recorded” stand apart in the source; their conditions may differ. Where no end group is shown, it is not given here.

Experiments:
[1] = system: necrosis-induced A549 cells (glucose-depleted medium); test: Microscopic observation of binding of the peptide to necrotic cells (Example 9-4); format: cell-based, human; details: glucose-depleted medium 24 hours; 10 μM fluorescein-labeled peptide 4° C. 1 hour
Method: A549 Cells were cultured in chamber slide (Nunc) and treated with glucose-depleted medium for 24 hours to induce necrosis. The necrosis-induced cells were washed with PBS and blocked with 1% BSA at 37° C. for 30 minutes. Then, the cells were reacted with 10 μM of the peptide labeled with fluorescein, at 4° C. for 1 hour. After washing, the cells were reacted with […] Hoechst […] dye and […] PI at 37° C. for 15 minutes. The cells were washed with PBS and then fixed with 4% paraformaldehyde for 5 minutes.

apoptotic A549 cells = test: Competitive inhibition of binding to apoptotic cells by annexin V treatment (Example 3-2); format: cell-based, human; details: annexin V 1000 μM pre-treatment
Method: In order to further investigate the binding properties of the peptide of the present invention (ApoPep-1) to apoptotic cells, competitive inhibition by annexin V was measured. To this end, first, apoptotic A549 cells were pre-treated with annexin V, not labeled with fluorescence, at concentrations of 0, 200 and […]. Then, after reacting the cells with fluorescence-labeled annexin V under the same condition as described in Example <3-1>, the binding of the cells was observed under a fluorescence microscope.
Further, apoptotic A549 cells were pre-treated with annexin V, not labeled with fluorescence, at a concentration of 1000 μM. Then, after reacting the cells with fluorescence-labeled peptide under the same condition as described in Example <3-1>, the binding of the cells was observed under a fluorescence microscope.

[2] = system: brain of stroke rat (middle cerebral artery occlusion/reperfusion); test: Molecular imaging of stroke (Example 6); format: in vivo
Method: A stroke model was established by occluding the left middle cerebral artery of a rat for 2 hours, followed by reperfusion. Two hours after the reperfusion, the peptide having an amino sequence represented by SEQ ID NO: 1 (ApoPep-1) and a control peptide, labeled with Cy7.5 NIR fluorescence, was intravenously injected at a final concentration of 50 μM to the stroke rat and a normal rat through the tail vein, under isoflurane anesthesia. One and three hours after the intravenous injection, NIR images of the head portion were obtained. Further, NIR fluorescence images of the brains of the rats of the 3 hour group were obtained.

[3] = Cy7.5-labeled peptide 50 μM i.v.

## CSVAPR (also: fluorescein or Cy7.5 label) [ApoPep-2, peptide CSVAPR screened for endothelial cells; used fluorescein- or Cy7.5-labeled]
[1]
  labeling of glucose-depleted necrotic cells: did not bind to the necrosis-induced cells; also recorded: no labeling was observed

## CQRPPR (also: fluorescein or Cy7.5 label) [ApoPep-1, peptide CQRPPR screened for macrophages; used fluorescein- or Cy7.5-labeled]
Apoptotic A549 cells
  binding of fluorescence-labeled peptide after pre-treatment with unlabeled annexin V: not inhibited
[2]; 3 hour group, left middle cerebral artery occluded
  fluorescence of isolated brain of stroke rat: fluorescence was observed at the left hemisphere
[2]; [3]
  NIR fluorescence at the head portion of the normal rat: almost nonexistent
  NIR fluorescence at the head portion of the stroke rat at 3 hours: very strong fluorescence
[2]; Cy7.5-labeled peptide 50 μM i.v., 2 hours after reperfusion
  NIR fluorescence at the head portion of the stroke rat at 1 hour: NIR fluorescence was observed
